Experimental data from patent US20190142722A1, “METHODS AND COMPOSITIONS FOR PROMOTING OR INDUCING HAIR GROWTH” (THE TRUSTEES OF COLUMBIA UNIVERSITY IN THE CITY OF NEW YORK, priority 2017, published 2019).

What was measured:
[1] = system: telogen skin; experiment: Anagen induction by topical JAK inhibitor in mouse telogen skin; type: in vivo; conditions: topical to dorsal skin for 5 days at P60 (mid-telogen), C57BL/6 mice
Description: (§1) Mice were carefully shaved with clippers during telogen to reveal the pink skin typical of the telogen phase 1 week prior to the experiment. Mice that were inadvertently wounded were not used. Anagen was induced by topical application of 2% Ruxolitinib in DMSO to the right side of the dorsal skin daily for 5 consecutive days. The hair cycle was observed and documented with standardized photographs taken prior to the first treatment, and then twice weekly thereafter. Murine IL-6, LIF or OSM (100 ng/ml, 50 ng/ml, 125 ng/ml respectively) were dissolved in sterile PBS and 100 μl was injected into the center of the field of application daily for 10 consecutive days, beginning with the first application of Ruxolitinib.
(§2) OSM and other gp130 cytokines (IL-6 and Leukemia Inhibitory Factor, LIF) were tested for their ability to inhibit anagen resulting from topical JAK inhibitors, which resembles spontaneous anagen. C57BL/6 mice were treated on the right dorsal skin topically with Ruxolitinib 2% in DMSO at P60 (mid-telogen) for 5 days, recapitulating previous experiments in Harel, S., et al., Pharmacologic inhibition of JAK-STAT signaling promotes hair growth. Sci Adv, 2015. 1(9): p. e1500973. […] From P60, mice were also injected with control PBS or a gp130 cytokine (IL-6, LIF or OSM) into the middle of the field of topical application for 10 days. […] (FIG. 1A).

[2] = system: Hair follicle stem cells (HFSCs); experiment: Western blot of cultured HFSCs stimulated with OSM, with or without JAK inhibitor pre-treatment; type: cell-based, mouse
Protocol: (§3) HFSCs (ITGA6+ Sca-1−) cells were collected from flow cytometry and plated onto 6-well plates, and maintained with Cnt-07S keratinocyte media. In vitro stimulation experiments were carried out when keratinocytes were 80-90% confluent. Confluent HFSCs were pre-treated with JAK inhibitors (tofacitinib, ruxolitinib or PF-06651600, all at 10 μM) for 20 min, and murine OSM was added for a final concentration of 10 ng/ml or 20 ng/ml for 15 min. For clonogenic assays, HFSCs were plated at a density of 10,000 cells per well and maintained for 2 weeks. For analysis of clonogenicity, plates were washed with PBS, and keratinocytes were fixed in situ with 4% paraformaldehyde (PFA) for 1 hour, followed by staining with 1% (wt/vol) Rhodamine B (Sigma-Aldrich) for 1 h. Clones were quantified using a backlight.
Cells were lyzed in RIPA buffer in the presence of protease and phosphatase inhibitors on ice, and protein lysates were resuspended in Laemmli sample buffer. Whole-cell lysates were fractionated on TGX Stain-free protein gels and transferred to a PVDF membrane, blocked with 5% non-fat milk in TBST, and incubated with antibodies listed in the Key Resources Table (all 1:1000, diluted in TBST/3% BSA) overnight. Membranes were washed the following day and incubated with HRP-conjugated secondary antibodies (1:5000), washed, and developed with Luminata Forte Western HRP Substrate and visualized on the BioRAD ChemiDOC MP Imaging system. GAPDH or (3-actin were used as loading controls, depending on the mass of the proteins of interest.
Hair follicle stem cells (HFSCs) (ITGA6+ Sca-1− population isolated from telogen skin), were cultured and stimulated with OSM at 10 ng/ml and 20 ng/ml. […] (FIG. 1C).

[3] = system: macrophages; experiment: Macrophage inhibition during telogen to initiate anagen; type: in vivo, mouse; conditions: mid-telogen, C57BL/6 mice
Protocol: (§4) Neutralizing antibodies to OSMR (7.5 μg) were injected intradermally into the dorsal telogen skin daily for 14 days from P60 (mid-telogen). Neutralizing antibodies to CSFL1R (AFS98) and F4/80 (CI:A3-1) were diluted in sterile PBS, and 500 μg was injected intradermally into the dorsal telogen skin for 14 consecutive days. Neutralizing antibodies to CD25 (PC61.5) were injected intraperitoneally every other day (250 μg/dose×3) from P53, prior to anagen induction at P60.
(§5) For in vivo macrophage inhibition, the small molecule Pexidartinib/PLX3397 was administered topically (2 mM in DMSO) or subcutaneously (1 mM in corn oil) for 5 consecutive days from P60. For OSM knock-down, peritoneal macrophages were harvested from adult C57BL/6 mice and cultured in DMEM/F12/15% FBS/0.3 mMCa2+ the presence of […] M-CSF to polarize them to an “M2-like” phenotype, similar to trichophages. Lentiviral precipitate containing scrambled or OSM shRNA added to the media in the presence of 8 μg/ml protamine sulphate, and the cells were centrifuged at 3000 rpm for 1 h at 32° C. to enhance transduction. Successful transductions were enriched with puromycin (1 μg/ml) selection, counted and used for the patch assay.
Three independent methods of macrophage inhibition during telogen were used to initiate anagen in C57BL/6 mice.

[4] = system: T regulatory cells / macrophages; experiment: Anagen initiation after T regulatory cell depletion or macrophage targeting; type: in vivo, mouse
Protocol: as §4

[5] = system: (ITGA6+ Sca-1−) HFSCs; experiment: Colony-forming assay with isolated HFSCs; type: cell-based, mouse; conditions: for colony formation of HFSCs: OSM 10 ng/ml or Tofacitinib 100 nM alone
Protocol: as §3
Colony-forming assays with isolated (ITGA6+ Sca-1−) HFSCs were performed in the presence of OSM (10 ng/ml), Tofacitinib (100 nM) or both. […] (FIG. 1E).

[6] = system: Neonatal keratinocytes and dermal cells; experiment: Hair reconstitution (patch) assay; type: in vivo; conditions: tofacitinib 400 nM or OSM 25 ng/ml added to cell slurry injected intradermally into nude mouse
Protocol: as §5
Neonatal (P0 or P1) mice were sacrificed and skins were harvested for the patch assay. Neonatal skins were enzymatically separated with 0.25% trypsin, and the dermis was further digested with 0.3% collagenase/DNase. Neonatal keratinocytes and dermal cells were counted recombined in a 1:1 ratio ([…] each) and resuspended in 100 μl of media (1:1 mix of DMEM/10% FBS and CnT-0.7S) and injected intradermally into the dorsal skin of a nude mouse. For pharmacological/cytokine treatment, tofacitinib (400 nM) and/or OSM (25 ng/ml) was added. […]

[7] = system: alopecia areata; conditions: patients, literature (Mackay-Wiggan 2016; Kennedy Crispin 2016); cited from earlier work
[8] = system: hair follicles; conditions: cited from earlier work
[9] = system: telogen skin; experiment: Inhibition of topical JAK inhibitor-induced anagen by intradermal gp130 cytokines; type: in vivo, mouse; conditions: cytokine injected intradermally into middle of field of topical application for 10 days from P60, C57BL/6 mice
Description: as §1, §2

[10] = pre-treatment 10 μM for 20 min before OSM
[11] = OSM at 10 ng/ml and 20 ng/ml, cultured HFSCs

In the case of C=CC(=O)N1C[C@H](Nc2ncnc3[nH]ccc23)CC[C@@H]1C [PF-06651600], the “anagen induction in telogen skin” value [1] is reported as “sufficient to initiate anagen”, the “effect on JAK phosphorylation in OSM-stimulated HFSCs (Western blot)” value [2, 10] is reported as “did not have an effect on JAK1/JAK2/Tyk2 or STAT3 phosphorylation” and the “effect on pSTAT3 / pSTAT5 activation in OSM-stimulated HFSCs (Western blot)” value (from here on “effect on pSTAT3 / pSTAT5 activation”) [2, 10] is reported as “without significant inhibition of STAT3 phosphorylation”. For the same molecule, the “effect on pSTAT3 / pSTAT5 activation” value ([2]; pre-treatment 10 μM for 20 min before OSM, listed as PF-06651660) was “still inhibited pSTAT5 activation”.

With FC(F)(F)c1ccc(CNc2ccc(Cc3c[nH]c4ncc(Cl)cc34)cn2)cn1 [Pexidartinib, 5-[(5-chloro-1H-pyrrolo[2,3-b]pyridin-3-yl)methyl]-N-[[6-(trifluoromethyl)pyridin-3-yl]methyl]pyridin-2-amine] the anagen initiation ([3]; subcutaneous (1 mM in corn oil) for 5 days) was “successful at initiating anagen”, the anagen initiation ([3]; topical (2 mM in DMSO) for 5 days) was “successful at initiating anagen” and the “anagen initiation compared with wild-type mice treated with a JAK-inhibitor” value [4] was “initiated anagen in the same manner as wild-type mice treated with a JAK-inhibitor”.

With C[C@@H]1CCN(C(=O)CC#N)C[C@@H]1N(C)c1ncnc2[nH]ccc12 [Tofacitinib] the “colony formation of HFSCs” value [5] was “increased the colony-forming ability of HFSCs, as well as increasing the colony size”, the “rescue of the inhibitory effects of OSM on colony formation” value ([5]; Tofacitinib 100 nM together with OSM 10 ng/ml) was “sufficient to rescue the inhibitory effects of OSM” and the “hair reconstitution in patch assay” value [6] was “enhanced the hair follicles generated in this assay”. For the same molecule, the “effect on JAK phosphorylation in OSM-stimulated HFSCs (Western blot)” value [2, 10] was “inhibited phosphorylation of a variety of JAKs”, the “effect on pSTAT3 / pSTAT5 activation” value [2, 10] was “inhibited both pSTAT3 and pSTAT5 activation” and the “inhibition of OSM-activated pathways by pre-treatment (Western blot)” value ([2]; pre-treatment 10 μM for 20 min before OSM, cultured HFSCs) was “inhibited the JAK-STAT and, to a lesser extent, the MAPK-MEK-ERK pathways”. For the same molecule, the “efficacy in alopecia areata” value [7] was “efficacious in the treatment of alopecia areata”.

B1: IL-6: gp130 cytokine, murine IL-6 (protein, UniProt P08505 25-211, looked up)
Interleukin-6: FPTSQVRRGDFTEDTTPNRPVYTTSQVGGLITHVLWEIVEMRKELCNGNSDCMNNDDALAENNLKLPEIQRNDGCYQTGYNQEICLLKISSGLLEYHSYLEYMKNNLKDNKKDKARVLQRDTETLIHIFNQEVKDLHKIVLPTPISNALLTDKLESQKEWLRTKTIQFILKSLEEFLKVTLRSTRQT
In the case of B1, the induction of catagen ([8]; anagen HFs, literature (Kwack 2012)) is given as “IL-6 induced catagen in anagen HFs” and the “inhibition of anagen resulting from topical Ruxolitinib” value [9] is given as “OSM was the only member of this class of cytokines that inhibited anagen”.

B2: OSM: secreted cytokine of the LIF/OSM family; murine OSM used in tests (protein, UniProt P53347 25-206, looked up)
Oncostatin-M: NRGCSNSSSQLLSQLQNQANLTGNTESLLEPYIRLQNLNTPDLRAACTQHSVAFPSEDTLRQLSKPHFLSTVYTTLDRVLYQLDALRQKFLKTPAFPKLDSARHNILGIRNNVFCMARLLNHSLEIPEPTQTDSGASRSTTTPDVFNTKIGSCGFLWGYHRFMGSVGRVFREWDDGSTRSRR
With B2 the “colony formation of HFSCs” value [5] was “prevented colonies from forming in vitro”, the “hair reconstitution in patch assay” value [6] was “sufficient to nearly completely inhibit hair reconstitution” and the “activation of JAK-STAT and MAPK-MEK-ERK pathways (Western blot)” value [2, 11] was “activated JAK-STAT1/3/5 pathways and the MAPK-MEK-ERK pathways in HFSCs in a dose-dependent fashion”. For the same molecule, the “effect on PI3K/Akt/mTOR pathway (Western blot)” value [2, 11] was “minimal effect on the PI3K/Akt/mTOR pathway”, the “activation of JAKs, pSTAT3 and pSTAT5 (Western blot)” value ([2]; OSM-stimulated cultured HFSCs) was “dose-dependent activation of all four JAKs (JAK1, JAK2, JAK3, Tyk2), as well as pSTAT3 and pSTAT5” and the effect on anagen ([8]; mouse, literature) was “potent inhibitor of anagen”. For the same molecule, the “inhibition of anagen resulting from topical Ruxolitinib” value [9] was “inhibited anagen in the area it was administered”.
